Results on three molecules are retold here after ChEMBL document CHEMBL3351390, “DNA repair and redox activities and inhibitors of apurinic/apyrimidinic endonuclease 1/redox effector factor 1 (APE1/Ref-1): a comparative analysis and their scope and limitations toward anticancer drug development” (J Med Chem, 2014).

The target of the assay is DNA repair nuclease/redox regulator APEX1 (Homo sapiens, UniProt P27695). The assay is described as follows: Inhibition of human APE1 after 25 mins by fluorescence assay.
Sequence of DNA repair nuclease/redox regulator APEX1 (P27695 whole entry): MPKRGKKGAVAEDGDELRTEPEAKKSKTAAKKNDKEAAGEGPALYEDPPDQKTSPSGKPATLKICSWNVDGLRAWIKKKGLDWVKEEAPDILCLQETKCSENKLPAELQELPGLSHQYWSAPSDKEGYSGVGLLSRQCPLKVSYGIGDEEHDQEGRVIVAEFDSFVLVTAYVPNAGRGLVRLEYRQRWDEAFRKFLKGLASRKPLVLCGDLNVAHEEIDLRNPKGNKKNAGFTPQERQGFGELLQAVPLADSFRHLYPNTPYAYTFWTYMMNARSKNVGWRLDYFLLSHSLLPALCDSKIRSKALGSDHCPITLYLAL

The IC50 is the concentration needed to halve the response being measured. The low end stands for higher potency, the high end for lower potency. In turn, `Nc1c(S(=O)(=O)O)cc(Nc2ccc(Nc3nc(Cl)nc(Nc4ccc(S(=O)(=O)O)cc4)n3)c(S(=O)(=O)O)c2)c2c1C(=O)c1ccccc1C2=O` had a half-inhibitory concentration (IC50) of 0.25 µM. Regarding `O=C(O)c1cc2cccc([N+](=O)[O-])c2[nH]1`, the half-maximal inhibitory concentration (IC50) was found to be 3 µM. In the case of `O=C(O)C1=CC(=C(c2ccc(O)c(C(=O)O)c2)c2ccc(O)c(C(=O)O)c2)C=CC1=O` [AURINTRICARBOXYLIC ACID] it was 10 µM.
